ChEMBL document CHEMBL2390860, “Chemical constituents from Nelumbo nucifera leaves and their anti-obesity effects” (Bioorg Med Chem Lett, 2013)
The source made the active and inactive calls. The rule behind the calls is not given here.

Key:
[1] = molecular target: T1, Pancreatic triacylglycerol lipase (Sus scrofa) (UniProt P00591); test: Inhibition of porcine pancreatic lipase using para-nitrophenyl butyrate as substrate at 100 uM by ELISA
T1 sequence (whole entry): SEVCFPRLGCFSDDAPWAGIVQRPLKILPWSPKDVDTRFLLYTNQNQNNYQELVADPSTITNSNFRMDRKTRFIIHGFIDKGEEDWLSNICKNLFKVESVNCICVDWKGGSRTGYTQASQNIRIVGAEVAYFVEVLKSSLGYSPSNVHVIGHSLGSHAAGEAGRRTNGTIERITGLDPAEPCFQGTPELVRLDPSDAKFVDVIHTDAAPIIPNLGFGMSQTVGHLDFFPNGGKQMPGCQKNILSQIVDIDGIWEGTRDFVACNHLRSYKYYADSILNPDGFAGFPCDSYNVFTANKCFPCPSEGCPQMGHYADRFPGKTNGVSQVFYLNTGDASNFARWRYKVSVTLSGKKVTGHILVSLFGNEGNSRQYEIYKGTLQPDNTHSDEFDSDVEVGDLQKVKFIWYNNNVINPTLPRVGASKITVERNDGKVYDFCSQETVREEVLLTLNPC

3T3-L1 = test: Antiobesity activity in mouse 3T3L1 cells assessed as reduction of fat accumulation at 100 uM by oil Red O staining-based ELISA; type: functional, cell-based

Row | SMILES | Lipase inhibition (active/not active) [1] | Activity (3T3-L1)
1 | CC(=O)C=C=C1C(C)(C)C[C@H](O)C[C@@]1(C)O | inactive | inactive
2 | O=C1c2c(O)cc(O)cc2O[C@@H](c2ccc(O)c(O)c2)[C@H]1O | Active | Active
3 | COc1cc(/C=C\C(=O)NCCc2ccc(O)cc2)ccc1O | Active | inactive
4 | CC(=O)C=C=C1C(C)(C)C[C@H](O)C[C@]1(C)O | inactive | inactive
5 | CC(=O)/C=C\[C@@H]1[C@@H](C)C[C@@H](O[C@@H]2O[C@H](CO)[C@@H](O)[C@H](O)[C@H]2O)CC1(C)C | inactive | inactive
6 | CC(=O)/C=C/[C@H]1C(C)=C[C@H](O[C@@H]2O[C@H](CO)[C@@H](O)[C@H](O)[C@H]2O)CC1(C)C | inactive | inactive
7 | COc1cc(-c2oc3cc(O[C@@H]4O[C@H](CO)[C@@H](O)[C@H](O)[C@H]4O)cc(O)c3c(=O)c2O)ccc1O | inactive | Active
8 | CC1=C2C[C@@H](C(C)(C)O[C@@H]3O[C@H](CO)[C@@H](O)[C@H](O)[C@H]3O)CC[C@@]2(C)CCC1=O | inactive | inactive
9 | CC1=CC(=O)CC(C)(C)/C1=C/C[C@H](C)O | inactive | inactive
10 | O=C(/C=C\c1ccc(O)cc1)NCCc1ccc(O)cc1 | Active | inactive
11 | COc1cc(/C=C/C(=O)NCCc2ccc(O)cc2)ccc1O | Active | inactive
12 | Oc1cc(O)c2c(c1)O[C@@H](c1ccc(O)c(O)c1)[C@H](O)C2 | Active | –
13 | O=C1c2ccccc2-c2c3c(cc4ccnc1c24)OCO3 | Active | Active
14 | C[N+]1([O-])CCc2cc3c(c4c2[C@H]1Cc1ccccc1-4)OCO3 (some centres undefined) | Active | Active
15 | Oc1ccc([C@H]2Oc3c(O)c(O)c(O)c(O)c3C[C@@H]2O)cc1O | Active | –
16 | O=c1cc(-c2ccc(O)c(O)c2)oc2cc(O)cc(O)c12 | Active | Active

Row | SMILES | Lipase inhibition (active/not active) [1] | Activity (3T3-L1)
17 | O=C(/C=C/c1ccc(O)cc1)NCCc1ccc(O)cc1 | Active | inactive
18 | CC(=O)/C=C/[C@H]1[C@H](C)C[C@H](O)CC1(C)C | inactive | inactive
19 | O=c1c(O[C@@H]2O[C@H](CO)[C@@H](O)[C@H](O)[C@H]2O)c(-c2ccc(O)cc2)oc2cc(O)cc(O)c12 | inactive | Active
20 | CC(=O)/C=C/[C@]1(O)[C@@H](C)C[C@@H](O)CC1(C)C | inactive | inactive
21 | CC1(C)C[C@@H](O)C[C@@]2(C)OC(=O)C=C12 | inactive | inactive
22 | CC1=CC(=O)CC(C)(C)[C@@]1(O)/C=C/[C@@H](C)O | inactive | inactive
23 | COc1cc2c3c(c1OC)C1(C=CC(=O)C=C1)C[C@H]3N(C)CC2 | Active | –
24 | CC(=O)/C=C/[C@@]1(O)C(C)=CC(=O)CC1(C)C | inactive | inactive
25 | O=c1c(O[C@@H]2O[C@H](CO)[C@@H](O)[C@H](O)[C@H]2O)c(-c2ccc(O)c(O)c2)oc2cc(O)cc(O)c12 | inactive | Active
26 | O=c1c(O)c(-c2ccc(O)c(O)c2)oc2cc(O)cc(O)c12 | Active | Active
27 | CC(=O)/C=C/[C@@]12O[C@]1(C)C[C@@H](O[C@@H]1O[C@H](CO)[C@@H](O)[C@H](O)[C@H]1O)CC2(C)C | inactive | inactive
28 | O=C1c2c(O)cc(O)cc2O[C@H](c2ccc(O)c(O)c2)[C@H]1O | Active | –
29 | CC(=O)/C=C/[C@]12O[C@@]1(C)C[C@@H](O)CC2(C)C | inactive | Active
30 | CC(=O)/C=C/[C@@]12O[C@]1(C)C[C@@H](O)CC2(C)C | inactive | Active
31 | O=c1c(O)c(-c2ccc(O)cc2)oc2cc(O)cc(O)c12 | Active | Active
32 | O=C1CC[C@@H]2c3cc(O)c(O)cc3CCN12 | Active | –
